According to patent US20240218022A1, “ANTI-VISTA MACROCYCLIC PEPTIDES AND COMPOSITIONS” (BRISTOL-MYERS SQUIBB COMPANY, priority 2022, published 2024):
Like-named read-outs stand apart in the source and are kept apart here. Starred links: 1 amine or outer side, 2 acyl side, 3 side chain; linkers in the order of their positions; H or OH if unused. Positions of bridges follow the written chain, without caps; N, C: chain ends. Non-standard residues stand in square brackets, D forms with d. Residues, ends and D or L forms follow the SMILES beside them. Phe(3-CF3) = N[C@@H](Cc1cccc(C(F)(F)F)c1)C(=O)O; Phe(4-CONH2) = NC(=O)c1ccc(C[C@H](N)C(=O)O)cc1; Phe(3-Br) = N[C@@H](Cc1cccc(Br)c1)C(=O)O; γGlu = O=C(O)[C@H](CCC(=O)[*:2])N[*:1]; 2Nal = N[C@@H](Cc1ccc2ccccc2c1)C(=O)O; βAsp = O=C(O)[C@H](CC(=O)[*:2])N[*:1]; Ahp(2) = CCCCC[C@H](N)C(=O)O; NMeNle = CCCC[C@H](NC)C(=O)O; Tle = CC(C)(C)[C@H](N)C(=O)O; NMeS = CN[C@@H](CO)C(=O)O; NHexGly = CCCCCCNCC(=O)O; Nle = CCCC[C@H](N)C(=O)O; Orn = NCCC[C@H](N)C(=O)O; Aun = NCCCCCCCCCCC(=O)O; Dab = NCC[C@H](N)C(=O)O; AEEA = NCCOCCOCC(=O)O

Molecular target: T1, mouse VISTA (mVISTA) (Mus musculus, UniProt Q9D659)
T1 construct: expressed in transfected cells; host or cells: Human embryonic kidney 293T cells
T1 sequence (Q9D659 33-308): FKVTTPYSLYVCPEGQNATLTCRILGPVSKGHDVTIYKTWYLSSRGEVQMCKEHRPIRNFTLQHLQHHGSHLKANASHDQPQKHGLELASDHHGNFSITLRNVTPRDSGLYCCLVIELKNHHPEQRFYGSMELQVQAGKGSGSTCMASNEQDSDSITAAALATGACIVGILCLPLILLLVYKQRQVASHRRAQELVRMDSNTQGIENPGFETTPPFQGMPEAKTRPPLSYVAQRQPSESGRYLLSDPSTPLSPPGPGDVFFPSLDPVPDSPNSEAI
Test: Cell-Based Binding High-Content Assay For mVISTA (HC CBA mVISTA)
Procedure, shortened: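 This high-content binding assay uses HEK293T cells expressing murine VISTA, measuring displacement of 2 nM biotinylated peptide by fluorescent streptavidin imaging. IC50 values come from four-parameter logistic fitting.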

[1] = cell-based binding high-content assay, mVISTA, the 16th table, read-out: HC CBA mVISTA IC50

IC50 (read-out: HC CBA mVISTA IC50)	SMILES	further results
16.6 nM	CCCCCCN1CC(=O)N[C@@H](Cc2ccc(O)cc2)C(=O)N[C@@H](CCCCC)C(=O)N[C@@H](CC(N)=O)C(=O)N[C@@H](CCCNC(=N)N)C(=O)N[C@@H](Cc2c[nH]c3ccccc23)C(=O)N[C@@H](CCCCC)C(=O)N2CCC[C@H]2C(=O)N[C@@H](C(C)C)C(=O)N[C@@H](CO)C(=O)N[C@H](C(=O)N[C@@H](CCC(=O)NCCCCCCCCCCC(=O)O)C(=O)O)CSCC(=O)N[C@@H](Cc2ccccc2)C(=O)N[C@@H](Cc2ccc(O)cc2)C(=O)N[C@@H](CC(=O)O)C1=O [Example 2129] ({CH2CO}-FYD[NHexGly]Y[Ahp(2)]NRW[Ahp(2)]PVSC[γGlu][Aun]-OH; thioether N-14)	
	CCCCCCN1CC(=O)N[C@@H](Cc2ccc(O)cc2)C(=O)N[C@@H](CC(C)C)C(=O)NCC(=O)N[C@@H](CCCNC(=N)N)C(=O)N[C@@H](Cc2ccc(O)cc2)C(=O)N[C@@H](CCCCC)C(=O)N2CCC[C@H]2C(=O)N[C@@H](C(C)C)C(=O)N[C@@H](CC(=O)O)C(=O)N[C@H](C(=O)NCC(N)=O)CSCC(=O)N[C@@H](Cc2ccccc2)C(=O)N[C@@H](Cc2ccc(O)cc2)C(=O)N[C@@H](CC(=O)O)C1=O [Example 1096] ({CH2CO}-FYD[NHexGly]YLGRY[Ahp(2)]PVDCG-NH2; thioether N-14)	IC50 (293T cells expressing mouse VISTA, competition with biotinylated peptide (2 nM), read-out: HC CBA mVISTA IC50): 15.5 nM
12.1 nM	CCCCCCN1CC(=O)N[C@@H](Cc2ccc(O)cc2)C(=O)N[C@@H](CCCC)C(=O)N[C@@H](CC(N)=O)C(=O)N[C@@H](CCCNC(=N)N)C(=O)N[C@@H](CC(C)C)C(=O)N[C@@H](CCCCC)C(=O)N2CCC[C@H]2C(=O)N[C@@H](C(C)C)C(=O)N[C@@H](CC(=O)O)C(=O)N[C@H](C(=O)NCC(=O)O)CSCC(=O)N[C@@H](Cc2ccccc2)C(=O)N[C@@H](Cc2cccc(C(F)(F)F)c2)C(=O)N[C@@H](CC(=O)O)C1=O [compound 1332] ({CH2CO}-F[Phe(3-CF3)]D[NHexGly]Y[Nle]NRL[Ahp(2)]PVDCG-OH; thioether N-14)	
	CCCCCCN1CC(=O)N[C@@H](Cc2ccc(O)cc2)C(=O)N[C@@H](CCCC)C(=O)N[C@@H](CC(=O)O)C(=O)N[C@@H](CCCN)C(=O)N[C@@H](CC(C)C)C(=O)N[C@@H](CCCCC)C(=O)N2CCC[C@H]2C(=O)N[C@@H](C(C)C)C(=O)N[C@@H](CC(=O)O)C(=O)N[C@H](C(=O)N[C@@H](CO)C(N)=O)CSCC(=O)N[C@@H](Cc2ccc3ccccc3c2)C(=O)N[C@@H](Cc2ccc(O)cc2)C(=O)N[C@@H](CC(=O)O)C1=O [Ex 1319] ({CH2CO}-[2Nal]YD[NHexGly]Y[Nle]D[Orn]L[Ahp(2)]PVDCS-NH2; thioether N-14)	IC50 [1]: 13.7 nM
13.7 nM	CCCCCCN1CC(=O)N[C@@H](Cc2ccc(O)cc2)C(=O)N[C@@H](CCCC)C(=O)N[C@@H](CC(N)=O)C(=O)N[C@@H](CCCNC(=N)N)C(=O)N(C)[C@@H](CCCC)C(=O)N[C@@H](CCCCC)C(=O)N2CCC[C@H]2C(=O)N[C@@H](C(C)C)C(=O)N[C@@H](CC(=O)O)C(=O)N[C@H](C(=O)N[C@@H](CCN)C(=O)N[C@@H](CCC(N)=O)C(=O)O)CSCC(=O)N[C@@H](Cc2ccc3ccccc3c2)C(=O)N[C@@H](Cc2c[nH]c3ccccc23)C(=O)N[C@@H](CC(=O)O)C1=O [compound 1134] ({CH2CO}-[2Nal]WD[NHexGly]Y[Nle]NR[NMeNle][Ahp(2)]PVDC[Dab]Q-OH; thioether N-14)	
20.8 nM	CCCCCCN1CC(=O)N[C@@H](Cc2ccc(O)cc2)C(=O)N[C@@H](CCCC)C(=O)N[C@@H](CC(N)=O)C(=O)N[C@@H](CCCNC(=N)N)C(=O)N(C)[C@@H](CO)C(=O)N[C@@H](CCCCC)C(=O)N2CCC[C@H]2C(=O)N[C@@H](C(C)C)C(=O)N[C@@H](CC(=O)O)C(=O)N[C@H](C(=O)NCC(=O)O)CSCC(=O)N[C@@H](Cc2ccccc2)C(=O)N[C@@H](Cc2c[nH]c3ccccc23)C(=O)N[C@@H](CC(=O)O)C1=O [Example 1408] ({CH2CO}-FWD[NHexGly]Y[Nle]NR[NMeS][Ahp(2)]PVDCG-OH; thioether N-14)	
31.3 nM	CCCCCCN1CC(=O)N[C@@H](Cc2ccc(O)cc2)C(=O)N[C@@H](CC(C)C)C(=O)N[C@@H](CC(N)=O)C(=O)N[C@@H](CCCNC(=N)N)C(=O)N(C)[C@@H](CCCC)C(=O)N[C@@H](CCCCC)C(=O)N2CCC[C@H]2C(=O)N[C@@H](C(C)(C)C)C(=O)N[C@@H](C(C)C)C(=O)N[C@H](C(=O)NCCOCCOCC(=O)N[C@@H](CCC(=O)NCCOCCOCC(=O)NCCCCCCCCCCC(=O)O)C(=O)O)CSCC(=O)N[C@@H](Cc2ccccc2)C(=O)N[C@@H](Cc2c[nH]c3ccccc23)C(=O)N[C@@H](CC(=O)O)C1=O [compound 2281] ({CH2CO}-FWD[NHexGly]YLNR[NMeNle][Ahp(2)]P[Tle]VC[AEEA][γGlu][AEEA][Aun]-OH; thioether N-14)	
24.3 nM	CCCCCCN1CC(=O)N[C@@H](Cc2ccc(O)cc2)C(=O)N[C@@H](CCCCC)C(=O)NCC(=O)N[C@@H](CCCNC(=N)N)C(=O)N[C@@H](CC(C)C)C(=O)N[C@@H](CCCCC)C(=O)N2CCC[C@H]2C(=O)N[C@@H](C(C)C)C(=O)N[C@@H](CO)C(=O)N[C@H](C(=O)NCC(N)=O)CSCC(=O)N[C@@H](Cc2ccccc2)C(=O)N[C@@H](Cc2ccccc2)C(=O)N[C@@H](CC(=O)O)C1=O [compound 1325] ({CH2CO}-FFD[NHexGly]Y[Ahp(2)]GRL[Ahp(2)]PVSCG-NH2; thioether N-14)	
48.6 nM	CCCCCCN1CC(=O)N[C@@H](Cc2ccc(O)cc2)C(=O)N[C@@H](CCCC)C(=O)N[C@@H](CC(N)=O)C(=O)N[C@@H](CCCNC(=N)N)C(=O)N(C)[C@@H](CCCC)C(=O)N[C@@H](CCCCC)C(=O)N2CCC[C@H]2C(=O)N[C@@H](C(C)(C)C)C(=O)N[C@@H](C(C)C)C(=O)N[C@H](C(=O)NCCOCCOCC(=O)N[C@@H](CCC(=O)NCCOCCOCC(=O)NCCCCCCCCCCC(=O)O)C(=O)O)CSCC(=O)N[C@@H](Cc2ccccc2)C(=O)N[C@@H](Cc2c[nH]c3ccccc23)C(=O)N[C@@H](CC(=O)O)C1=O [compound 2239] ({CH2CO}-FWD[NHexGly]Y[Nle]NR[NMeNle][Ahp(2)]P[Tle]VC[AEEA][γGlu][AEEA][Aun]-OH; thioether N-14)	
	CCCCCCN1CC(=O)N[C@@H](Cc2ccc(O)cc2)C(=O)N[C@@H](CCCC)C(=O)N[C@@H](CC(N)=O)C(=O)N[C@@H](CCCNC(=N)N)C(=O)N[C@@H](CC(C)C)C(=O)N[C@@H](CCCCC)C(=O)N2CCC[C@H]2C(=O)N[C@@H](C(C)C)C(=O)N[C@@H](CC(=O)O)C(=O)N[C@H](C(=O)NCC(=O)O)CSCC(=O)N[C@@H](Cc2ccc(OCC)cc2)C(=O)N[C@@H](Cc2c[nH]c3ccccc23)C(=O)N[C@@H](CC(=O)O)C1=O [compound 1476] ({CH2CO}-Y(Et)WD[NHexGly]Y[Nle]NRL[Ahp(2)]PVDCG-OH; thioether N-14)	IC50 (the 20th table, scaffold drawing 23, read-out: HC CBA mVISTA IC50): 36.5 nM
	CCCCCCN1CC(=O)N[C@@H](Cc2ccc(O)cc2)C(=O)N[C@@H](CC(C)C)C(=O)N[C@@H](CC(N)=O)C(=O)N[C@@H](CCCN)C(=O)N(C)[C@@H](CCCC)C(=O)N[C@@H](CCCCC)C(=O)N2CCC[C@H]2C(=O)N[C@@H](C(C)(C)C)C(=O)N[C@@H](CC(=O)O)C(=O)N[C@H](C(=O)N[C@@H](CC(=O)NCCOCCOCC(=O)N[C@@H](CC(=O)O)C(=O)NCCOCCOCC(=O)NCCCCCCCCCCC(=O)O)C(=O)O)CSCC(=O)N[C@@H](Cc2ccc(C(N)=O)cc2)C(=O)N[C@@H](Cc2ccc(O)cc2)C(=O)N[C@@H](CC(=O)O)C1=O [compound 2092] ({CH2CO}-[Phe(4-CONH2)]YD[NHexGly]YLN[Orn][NMeNle][Ahp(2)]P[Tle]DC[βAsp][AEEA]D[AEEA][Aun]-OH; thioether N-14)	IC50 (cell-based binding high-content assay, mVISTA, read-out: HC CBA miPrISTA IC50): 15.8 nM
	CCCCCCN1CC(=O)N[C@@H](Cc2ccc(O)cc2)C(=O)N[C@@H](C(C)C)C(=O)NCC(=O)N[C@@H](CCCNC(=N)N)C(=O)N[C@@H](CC(C)C)C(=O)N[C@@H](CCCCC)C(=O)N2CCC[C@H]2C(=O)N[C@@H](C(C)C)C(=O)N[C@@H](CC(=O)O)C(=O)N[C@H](C(=O)N[C@@H](CCCNC(=N)N)C(N)=O)CSCC(=O)N[C@@H](Cc2ccc3ccccc3c2)C(=O)N[C@@H](Cc2ccc(O)cc2)C(=O)N[C@@H](CC(=O)O)C1=O [Ex 1312] ({CH2CO}-[2Nal]YD[NHexGly]YVGRL[Ahp(2)]PVDCR-NH2; thioether N-14)	IC50 [1]: 7.7 nM
18.3 nM	CCCCCCN1CC(=O)N[C@@H](Cc2ccc(O)cc2)C(=O)N[C@@H](CCCCC)C(=O)NCC(=O)N[C@@H](CCCNC(=N)N)C(=O)N[C@@H](CC(C)C)C(=O)N[C@@H](CCCCC)C(=O)N2CCC[C@H]2C(=O)N[C@@H](C(C)C)C(=O)N[C@@H](CO)C(=O)N[C@H](C(=O)NCCOCCOCC(=O)N[C@@H](CC(=O)NCCOCCOCC(=O)NCCCCCCCCCCC(=O)O)C(=O)O)CSCC(=O)N[C@@H](Cc2ccccc2)C(=O)N[C@@H](Cc2ccc(O)cc2)C(=O)N[C@@H](CC(=O)O)C1=O [Example 2199] ({CH2CO}-FYD[NHexGly]Y[Ahp(2)]GRL[Ahp(2)]PVSC[AEEA][βAsp][AEEA][Aun]-OH; thioether N-14)	

SMILES	IC50 (read-out: HC CBA mVISTA IC50)	further results
CCCCCCN1CC(=O)N[C@@H](Cc2ccc(O)cc2)C(=O)N[C@@H](CC(C)C)C(=O)N[C@@H](CC(N)=O)C(=O)N[C@@H](CCCNC(=N)N)C(=O)N(C)[C@@H](CCCC)C(=O)N[C@@H](CCCCC)C(=O)N2CCC[C@H]2C(=O)N[C@@H](C(C)(C)C)C(=O)N[C@@H](CO)C(=O)N[C@H](C(=O)NCC(N)=O)CSCC(=O)N[C@@H](Cc2cccc(Br)c2)C(=O)N[C@@H](Cc2ccc(O)cc2)C(=O)N[C@@H](CC(=O)O)C1=O [compound 1225] ({CH2CO}-[Phe(3-Br)]YD[NHexGly]YLNR[NMeNle][Ahp(2)]P[Tle]SCG-NH2; thioether N-14)	31.2 nM	
